Assays:
[1] = system: E. faecalis; experiment: microbe, parasite or virus in culture; assay type: cell-based; conditions: E. faecalis, gyrA Ser83Ile
[2] = system: E. faecium; experiment: microbe, parasite or virus in culture; assay type: cell-based; conditions: E. faecium, gyrA Ser83Ile, parC Ser80Ile

Measured: MIC

Cc1cc(=O)n(C)c2c3c4c(cc12)c(C)cc(=O)n4CO3 [DNM, deoxynybomycin]
0.25 µg/mL: [1]; C21667, parC Ser80Ile | [1]; C28535, parC Ser80Ile | [1]; S234, parC Ser80Ile Glu84Asp | [2]; C27569 | [2]; D1 | [2]; S51 | [2]; S122 | [2]; SL152

CCn1c(=O)cc(C)c2cc3c(C)cc(=O)n4c3c(c21)OC4 [DNM-2]
0.25 µg/mL: [1]; C28535, parC Ser80Ile | [1]; S234, parC Ser80Ile Glu84Asp

Reference: publication PMC4421842 (Nature Communications, 2015)
